This note sets out measurements from patent US20240059673A1, “SUBSTITUTED INDOLE COMPOUNDS” (Gilead Sciences, Inc., priority 2020, published 2024).

For one assay, the target named is T1, TLR7 (Homo sapiens, UniProt Q9NYK1).
T1 construct: lymphocytes, monocytes and dendritic cells that express TLR7, TLR8 and TLR9; endogenous in cells; host or cells: cryopreserved human PBMCs from healthy donors
T1 sequence (Q9NYK1 27-1049): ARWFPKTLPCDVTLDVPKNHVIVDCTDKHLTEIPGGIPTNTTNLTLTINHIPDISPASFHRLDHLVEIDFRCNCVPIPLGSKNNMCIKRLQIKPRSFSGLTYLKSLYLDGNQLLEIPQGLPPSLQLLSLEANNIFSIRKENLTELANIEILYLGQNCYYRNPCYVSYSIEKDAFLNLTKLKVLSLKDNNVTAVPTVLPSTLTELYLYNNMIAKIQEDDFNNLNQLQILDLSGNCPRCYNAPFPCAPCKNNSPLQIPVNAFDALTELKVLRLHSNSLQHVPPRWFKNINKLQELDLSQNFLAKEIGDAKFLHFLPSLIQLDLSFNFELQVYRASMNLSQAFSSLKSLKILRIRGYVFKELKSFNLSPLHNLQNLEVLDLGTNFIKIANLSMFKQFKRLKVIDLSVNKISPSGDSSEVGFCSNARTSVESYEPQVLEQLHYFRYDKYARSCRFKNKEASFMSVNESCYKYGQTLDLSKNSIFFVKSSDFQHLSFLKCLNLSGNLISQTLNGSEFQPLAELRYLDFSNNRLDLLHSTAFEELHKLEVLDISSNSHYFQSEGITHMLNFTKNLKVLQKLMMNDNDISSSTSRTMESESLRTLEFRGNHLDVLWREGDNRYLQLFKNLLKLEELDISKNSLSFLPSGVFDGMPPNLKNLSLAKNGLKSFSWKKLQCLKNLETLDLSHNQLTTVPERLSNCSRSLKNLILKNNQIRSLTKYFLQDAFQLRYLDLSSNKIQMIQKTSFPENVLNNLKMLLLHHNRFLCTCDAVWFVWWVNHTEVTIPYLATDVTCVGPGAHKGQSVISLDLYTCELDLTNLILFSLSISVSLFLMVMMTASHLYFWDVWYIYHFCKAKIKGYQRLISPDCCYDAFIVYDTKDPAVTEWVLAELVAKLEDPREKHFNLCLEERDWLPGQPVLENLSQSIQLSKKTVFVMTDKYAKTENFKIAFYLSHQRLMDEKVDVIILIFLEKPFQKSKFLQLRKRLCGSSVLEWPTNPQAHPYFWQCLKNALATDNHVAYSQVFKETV
The assay is described as follows: Human PBMC cell-based assay, TLR7 agonist stimulation. Conditions: human PBMCs, read-out: TLR-7 EC50. From the text: (§1) Human Peripheral Blood Mononuclear Cell (PBMC) Cell-Based Assay
(§2) Human peripheral blood mononuclear cells (PBMCs) consist of lymphocytes, monocytes and dendritic cells that express TLR7, TLR8 and TLR9. These cells respond to TLR7, TLR8 and TLR9 ligand stimulation and produce cytokines and chemokines in vitro and in vivo. Human PBMCs are therefore suitable to be used in a cell-based assay to assess the in vitro potency of a TLR 7, 8, and/or 9 antagonist. The result is expected to be more translatable to the pharmacodynamics response in vivo than cell line-based assays.
(§3) Cryopreserved human PBMCs from healthy donors were thawed and resuspended in RPMI-1640 media with L-glutamine (Corning) supplemented with 10% Fetal Bovine Serum (Hyclone) and 1× Penicillin-Streptomycin (Corning). After counting, the cell density was adjusted to 2 million cells/ml and incubated for 1 hour at 37° C., 5% CO2 for recovery. Following the recovery, the cells were plated by adding 50p per well (100,000 cells) to 384-well cell culture plates (Greiner) containing 250 nl of test antagonists in 100% DMSO per well, in a 10 points dose response in quadruplicates. PBMCs were incubated in the presence of test antagonists for one hour at 37° C., 5% CO2 before being stimulated with a TLR7 or TLR9 agonist. GS-986 (Gilead Sciences) was used as the TLR7 agonist at a final concentration of 400 nM. ODN-2216 (InvivoGen) was used as the TLR9 agonist at a final concentration of 3μM. PBMCs were incubated in the presence of the test antagonist and the TLR7 (or TLR9) agonist for an additional 6 hours at 37° C., 5% CO2. At the end of the incubation, the cell culture plates were centrifuged at 500 g for 5 min, and the cell culture supernatant was collected. The level of cytokines (IL-6 and IFNα) in the supernatant was measured by electrochemiluminescence immunoassays (Mesoscale Discovery) following manufacturer's recommended protocols. The level of cytokine measured was plotted against the test antagonist concentration and fitted to a sigmoidal function to determine the EC50, which are shown below in Table 2.

Another assay addresses T2, TLR9 (Homo sapiens, UniProt Q9NR96).
T2 construct: lymphocytes, monocytes and dendritic cells that express TLR7, TLR8 and TLR9; endogenous in cells; host or cells: cryopreserved human PBMCs from healthy donors
T2 sequence (Q9NR96 26-1032): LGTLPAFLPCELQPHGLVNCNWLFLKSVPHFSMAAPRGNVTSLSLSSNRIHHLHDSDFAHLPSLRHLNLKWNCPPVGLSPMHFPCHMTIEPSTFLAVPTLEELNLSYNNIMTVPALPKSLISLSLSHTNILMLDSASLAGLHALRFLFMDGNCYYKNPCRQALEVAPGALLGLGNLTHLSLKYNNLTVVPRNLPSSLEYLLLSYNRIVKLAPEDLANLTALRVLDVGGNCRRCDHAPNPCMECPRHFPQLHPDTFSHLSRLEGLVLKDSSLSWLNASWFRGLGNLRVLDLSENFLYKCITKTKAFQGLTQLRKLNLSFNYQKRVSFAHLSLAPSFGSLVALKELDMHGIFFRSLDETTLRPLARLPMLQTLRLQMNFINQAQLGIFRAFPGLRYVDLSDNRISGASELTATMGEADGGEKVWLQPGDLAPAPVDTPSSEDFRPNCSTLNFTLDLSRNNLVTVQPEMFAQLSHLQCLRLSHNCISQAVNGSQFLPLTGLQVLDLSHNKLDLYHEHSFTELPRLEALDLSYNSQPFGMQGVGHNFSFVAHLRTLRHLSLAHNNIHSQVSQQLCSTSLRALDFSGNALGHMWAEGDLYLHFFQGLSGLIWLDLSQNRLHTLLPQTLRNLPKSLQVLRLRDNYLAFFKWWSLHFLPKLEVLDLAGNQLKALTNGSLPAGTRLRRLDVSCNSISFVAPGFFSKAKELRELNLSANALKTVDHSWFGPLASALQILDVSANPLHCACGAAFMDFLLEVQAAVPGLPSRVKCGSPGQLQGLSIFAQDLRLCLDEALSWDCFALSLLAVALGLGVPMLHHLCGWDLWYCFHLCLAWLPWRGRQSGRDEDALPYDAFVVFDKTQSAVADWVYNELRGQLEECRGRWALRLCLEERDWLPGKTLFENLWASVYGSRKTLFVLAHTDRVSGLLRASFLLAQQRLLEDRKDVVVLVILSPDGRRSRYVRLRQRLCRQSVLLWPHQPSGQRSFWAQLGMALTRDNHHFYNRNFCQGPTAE
In words: Human PBMC cell-based assay, TLR9 agonist stimulation. Conditions: human PBMCs, read-out: TLR-9 EC50.
Text: as §1, §2, §3

Where [1] appears, read: same protocol as Example A, Table 3 comparison.
[2] abbreviates: TLR7 agonist GS-986 400 nM, 6 hours, cytokines (IL-6 and IFNα) in supernatant, Table 2.
[3] abbreviates: TLR9 agonist ODN-2216 3 μM, 6 hours, cytokines (IL-6 and IFNα) in supernatant, Table 2.

Like-named read-outs stand apart in the source and are kept apart here.

With `Cc1cc(-c2[nH]c3ccc(-c4ccc(N5CCNCC5)nc4)cc3c2C(C)C)cn2ncnc12` [Example B, reference compound], the EC50 was determined as 0.0005 µM on TLR7 (setting [1]) and 0.716 µM at TLR9 (setting [1]).
For `Cc1c(-c2ccc(N3CCNCC3)nc2)[nH]c2cc(-c3ccc(C#N)c4ncccc34)ccc12` [Example 7], the EC50 on TLR7 (setting [2]) stood at 0.0005 µM; at TLR9 (setting [3]), 0.508 µM.
On the same counts, the results for `CCc1c(-c2ccc(N3CCNCC3)nc2)[nH]c2cc(-c3cc(C)c4ncnn4c3)ccc12` [Example 23] are 0.0005 µM and 0.305 µM.
On the same counts, the results for `Cc1cc(-c2ccc3c(C)c(-c4cnc(N5CCNCC5)nc4)[nH]c3c2)cc(C)n1` [Example 1, 6-(2,6-dimethylpyridin-4-yl)-3-methyl-2-(2-(piperazin-1-yl)pyrimidin-5-yl)-1H-indole] are 0.0073 µM and 0.0346 µM.
Take `Cc1c(-c2ccc(N3CCNCC3)nc2)[nH]c2cc(-c3cc(C)c4ncnn4c3)ccc12` [Example 4]: the EC50 on TLR7 (setting [2]) was 0.0014 µM; on TLR9 (setting [3]) it was 0.322 µM.
For `Cc1cc(-c2ccc3c(C)c(-c4ccc(N5CCNCC5)nc4)[nH]c3c2)cc(C)n1` [Example 2, 6-(2,6-dimethylpyridin-4-yl)-3-methyl-2-(6-(piperazin-1-yl)pyridin-3-yl)-1H-indole], the EC50 is 0.0068 µM at TLR7 (setting [2]) and 0.0332 µM at TLR9 (setting [3]).
Turning to `Cc1cc(-c2[nH]c3ccc(-c4ccc(N5CCNCC5)nc4)cc3c2C(C)C)cc(C)n1` [Example A, reference compound], the 50% effective concentration (EC50) was 0.0039 µM on TLR7 (setting [1]) and 0.263 µM at TLR9 (setting [1]).
